{"source": "patent US7326722B2", "about": "“N-[Phenyl(piperidin-2-yl)methyl]benzamide derivatives, their preparation and their application in therapy” (Sanofi-Aventis, priority 2002, dated 2008)", "note": "Where a name gives a salt, the structure may show the parent alone."}
{"smiles": "C[N+]1([O-])CCCCC1C(NC(=O)c1cccc(C(F)(F)F)c1Cl)c1ccccc1", "note": "(centres unmarked) (as salt: HCl) [Compound No. 69]", "values": [{"measurement": "melting point", "result": "126 to 128", "unit": "°C"}]}
{"smiles": "C[N+]1([O-])CCCCC1C(NC(=O)c1cccc(C(F)(F)F)c1Cl)c1ccccc1", "note": "(centres unmarked) (as salt: HCl) [Compound No. 70]", "values": [{"measurement": "melting point", "result": "100 to 102", "unit": "°C"}]}
